Test system: adult patients with persistent negative symptoms of schizophrenia
Type: in vivo, human
From the text: To assess changes in cognitive impairment associated with schizophrenia (CIAS), secondary endpoints included the 12-week change from baseline in the Brief Assessment of Cognition in Schizophrenia (BACS) composite score, a measure of cognition across multiple domains, and the Schizophrenia Cognition Rating Scale (SCORS) score, a measure of day-to-day cognitive functioning requiring input from an adult informant. Secondary endpoints were not corrected for multiplicity.
The BACS is specifically designed to measure treatment-related improvements in cognition and includes alternate forms. BACS is a reliable and sensitive measure of cognitive function in schizophrenia. The BACS is a cognition assessment battery that assesses 6 domains of cognitive function found to be consistently impaired in schizophrenia: verbal memory; working memory; motor speed; attention; executive functions; and verbal fluency. The primary measure from each test of the BACS is standardized by creating T-scores whereby the mean of the test session of a matched reference healthy participant is set to 50 and the standard deviation set to 10.

[1] = 125 mg once daily, preliminary analysis
[2] = 500 mg once daily, MMRM, preliminary analysis
[3] = 500 mg once daily, preliminary analysis

O=c1[nH]nc(CCc2ccc(C(F)(F)F)cc2)cc1O [Compound (I), luvadaxistat]
BACS Working Memory Cognition Domain, Change from Baseline to Week 6, Median [1]: 2.0
BACS Working Memory Cognition Domain, Change from Baseline to Week 12, Mean (SD) [1]: 1.8 (7.40)
BACS Working Memory Cognition Domain, Change from Baseline to Week 12, Median [1]: 0.0
BACS Working Memory Cognition Domain, Week 6, Mean (SD) [1]: 41.0 (11.17)
BACS Working Memory Cognition Domain, Week 6, Median [1]: 41.0
BACS Working Memory Cognition Domain, Week 12, Mean (SD) [1]: 41.7 (13.58)
BACS Working Memory Cognition Domain, Week 12, Median [1]: 40.0
BACS Attention Cognition Domain, Change from Baseline to Week 6, Mean (SD) (125 mg, Week 6): 2.2 (6.07)
BACS Attention Cognition Domain, Change from Baseline to Week 6, Median (125 mg, Week 6): 2.0
BACS Attention Cognition Domain, Week 6, Mean (SD) (125 mg, Week 6): 36.7 (12.72)
BACS Attention Cognition Domain, Week 6, Median (125 mg, Week 6): 37.0
BACS Executive Functions Cognition Domain, Change from Baseline to Week 6, Mean (SD) (125 mg, Week 6): 0.8 (9.01)
BACS Executive Functions Cognition Domain, Change from Baseline to Week 6, Median (125 mg, Week 6): 0.0
BACS Executive Functions Cognition Domain, Week 6, Mean (SD) (125 mg, Week 6): 46.3 (16.06)
BACS Executive Functions Cognition Domain, Week 6, Median (125 mg, Week 6): 50.0
BACS Verbal Fluency Cognition Domain, Change from Baseline to Week 6, Mean (SD) (125 mg, Week 6): 0.8 (4.53)
BACS Verbal Fluency Cognition Domain, Change from Baseline to Week 6, Median (125 mg, Week 6): 1.0
BACS Verbal Fluency Cognition Domain, Week 6, Mean (SD) (125 mg, Week 6): 39.1 (8.98)
BACS Verbal Fluency Cognition Domain, Week 6, Median (125 mg, Week 6): 40.0
BACS Attention Cognition Domain, Adjusted Change from Baseline to Week 6, LS Mean (SE) (125 mg, Week 6, MMRM): 2.2 (0.88)
BACS Attention Cognition Domain, Difference from Placebo for Week 6, LS Mean (SE) (125 mg, Week 6, MMRM): 1.2 (1.12)
BACS Executive Functions Cognition Domain, Adjusted Change from Baseline to Week 6, LS Mean (SE) (125 mg, Week 6, MMRM): 0.8 (1.19)
BACS Executive Functions Cognition Domain, Difference from Placebo for Week 6, LS Mean (SE) (125 mg, Week 6, MMRM): 2.0 (1.53)
BACS Verbal Fluency Cognition Domain, Adjusted Change from Baseline to Week 6, LS Mean (SE) (125 mg, Week 6, MMRM): 0.7 (0.68)
BACS Verbal Fluency Cognition Domain, Difference from Placebo for Week 6, LS Mean (SE) (125 mg, Week 6, MMRM): 0.6 (0.87)
BACS Attention Cognition Domain, Change from Baseline to Week 12, Mean (SD) (125 mg, Week 12): 1.2 (6.41)
BACS Attention Cognition Domain, Change from Baseline to Week 12, Median (125 mg, Week 12): 2.0
BACS Attention Cognition Domain, Week 12, Mean (SD) (125 mg, Week 12): 36.2 (12.21)
BACS Attention Cognition Domain, Week 12, Median (125 mg, Week 12): 36.0
BACS Executive Functions Cognition Domain, Change from Baseline to Week 12, Mean (SD) (125 mg, Week 12): 2.0 (8.79)
BACS Executive Functions Cognition Domain, Change from Baseline to Week 12, Median (125 mg, Week 12): 3.0
BACS Executive Functions Cognition Domain, Week 12, Mean (SD) (125 mg, Week 12): 47.6 (13.17)
BACS Executive Functions Cognition Domain, Week 12, Median (125 mg, Week 12): 51.0
BACS Verbal Fluency Cognition Domain, Change from Baseline to Week 12, Mean (SD) (125 mg, Week 12): 2.1 (5.59)
BACS Verbal Fluency Cognition Domain, Change from Baseline to Week 12, Median (125 mg, Week 12): 2.0
BACS Verbal Fluency Cognition Domain, Week 12, Mean (SD) (125 mg, Week 12): 40.6 (9.54)
BACS Verbal Fluency Cognition Domain, Week 12, Median (125 mg, Week 12): 39.0
BACS Attention Cognition Domain, Adjusted Change from Baseline to Week 12, LS Mean (SE) (125 mg, Week 12, MMRM): 1.4 (1.01)
BACS Attention Cognition Domain, Difference from Placebo for Week 12, LS Mean (SE) (125 mg, Week 12, MMRM): −0.5 (1.29)
BACS Executive Functions Cognition Domain, Adjusted Change from Baseline to Week 12, LS Mean (SE) (125 mg, Week 12, MMRM): 2.0 (1.09)
BACS Executive Functions Cognition Domain, Difference from Placebo for Week 12, LS Mean (SE) (125 mg, Week 12, MMRM): 1.4 (1.38)
BACS Verbal Fluency Cognition Domain, Adjusted Change from Baseline to Week 12, LS Mean (SE) (125 mg, Week 12, MMRM): 1.9 (0.84)
BACS Verbal Fluency Cognition Domain, Difference from Placebo for Week 12, LS Mean (SE) (125 mg, Week 12, MMRM): 0.9 (1.07)
BACS Verbal Memory Cognition Domain, Difference from Placebo for Week 6, LS Mean (SE) (500 mg once daily, MMRM, one-sided unadjusted p 0.070, preliminary analysis): 2.0 (1.33)
BACS Composite Score, Difference from Placebo for Week 6, LS Mean (SE) (500 mg once daily, MMRM, one-sided unadjusted p 0.194, preliminary analysis): 0.9 (1.04)
BACS Composite Score, Difference from Placebo for Week 12, LS Mean (SE) (500 mg once daily, MMRM, one-sided unadjusted p 0.260, preliminary analysis): 0.8 (1.20)
BACS Verbal Memory Cognition Domain, Difference from Placebo for Week 12, LS Mean (SE) (500 mg once daily, MMRM, one-sided unadjusted p 0.329, preliminary analysis): 0.7 (1.49)
BACS Motor Speed Cognition Domain, Difference from Placebo for Week 12, LS Mean (SE) (500 mg once daily, MMRM, one-sided unadjusted p 0.405, preliminary analysis): 0.3 (1.22)
BACS Working Memory Cognition Domain, Difference from Placebo for Week 12, LS Mean (SE) (500 mg once daily, MMRM, one-sided unadjusted p 0.637, preliminary analysis): −0.5 (1.40)
BACS Working Memory Cognition Domain, Difference from Placebo for Week 6, LS Mean (SE) (500 mg once daily, MMRM, one-sided unadjusted p 0.788, preliminary analysis): −0.9 (1.19)
BACS Motor Speed Cognition Domain, Difference from Placebo for Week 6, LS Mean (SE) (500 mg once daily, MMRM, one-sided unadjusted p 0.812, preliminary analysis): −1.1 (1.30)
BACS Composite Score, Adjusted Change from Baseline to Week 6, LS Mean (SE) [2]: 0.5 (0.87)
BACS Composite Score, Adjusted Change from Baseline to Week 12, LS Mean (SE) [2]: 1.5 (0.99)
BACS Motor Speed Cognition Domain, Adjusted Change from Baseline to Week 6, LS Mean (SE) [2]: −1.3 (1.07)
BACS Motor Speed Cognition Domain, Adjusted Change from Baseline to Week 12, LS Mean (SE) [2]: −0.2 (1.02)
BACS Verbal Memory Cognition Domain, Adjusted Change from Baseline to Week 6, LS Mean (SE) [2]: 0.7 (1.11)
BACS Verbal Memory Cognition Domain, Adjusted Change from Baseline to Week 12, LS Mean (SE) [2]: 0.0 (1.23)
BACS Working Memory Cognition Domain, Adjusted Change from Baseline to Week 6, LS Mean (SE) [2]: −0.9 (0.98)
BACS Working Memory Cognition Domain, Adjusted Change from Baseline to Week 12, LS Mean (SE) [2]: 0.2 (1.15)
BACS Composite Score, Change from Baseline to Week 6, Mean (SD) [3]: 1.5 (7.57)
BACS Composite Score, Change from Baseline to Week 6, Median [3]: 1.0
BACS Composite Score, Change from Baseline to Week 12, Mean (SD) [3]: 3.0 (7.98)
BACS Composite Score, Change from Baseline to Week 12, Median [3]: 3.0
